According to PubChem BioAssay (NCI):
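The compound was tested at five concentrations on cells cultured in 96-well plates, with a 48-hour exposure period. The concentration for full growth arrest is given as TGI.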

Assays:
Assay in all cases: DTP human tumour cell line panel, 48 h
[1] = tested on: MOLT-4 leukemia
[2] = tested on: SK-OV-3 ovarian
[3] = tested on: HCC-2998 colon
[4] = tested on: SF-268 CNS
[5] = tested on: NCI-H460 lung
[6] = tested on: UO-31 renal
[7] = tested on: T-47D breast
[8] = tested on: HCT-116 colon
[9] = tested on: HT29 colon
[10] = tested on: LOX IMVI melanoma
[11] = tested on: HOP-62 NSCLC
[12] = tested on: BT-549 breast
[13] = tested on: RXF 393 renal
[14] = tested on: OVCAR-4 ovarian
[15] = tested on: CAKI-1 renal
[16] = tested on: EKVX NSCLC
[17] = tested on: NCI-H522 lung
[18] = tested on: CCRF-CEM leukemia
[19] = tested on: 786-0 renal
[20] = tested on: COLO 205 colon
[21] = tested on: NCI-H23 lung
[22] = tested on: A498 renal
[23] = tested on: MDA-MB-435
[24] = tested on: NCI-H226 lung
[25] = tested on: SR leukemia
[26] = tested on: MDA-N
[27] = tested on: SN12C renal
[28] = tested on: UACC-257 melanoma
[29] = tested on: OVCAR-5 ovarian
[30] = tested on: SW-620 colon
[31] = tested on: SF-539 CNS
[32] = tested on: U251 CNS
[33] = tested on: HOP-92 NSCLC
[34] = tested on: HS 578T breast
[35] = tested on: KM12 colon
[36] = tested on: OVCAR-3 ovarian
[37] = tested on: SNB-75 CNS
[38] = tested on: UACC-62 melanoma
[39] = tested on: DU-145 prostate
[40] = tested on: SK-MEL-5 melanoma
[41] = tested on: TK-10 renal
[42] = tested on: ACHN renal
[43] = tested on: SK-MEL-28 melanoma
[44] = tested on: SF-295 CNS
[45] = tested on: RPMI-8226 leukemia
[46] = tested on: MCF7 breast
[47] = tested on: NCI/ADR-RES ovarian
[48] = tested on: MDA-MB-231 breast
[49] = tested on: HCT-15 colon
[50] = tested on: SNB-19 CNS
[51] = tested on: MALME-3M melanoma
[52] = tested on: M14 melanoma
[53] = tested on: A549 NSCLC
[54] = tested on: K-562 leukemia
[55] = tested on: OVCAR-8 ovarian
[56] = tested on: PC-3 prostate
[57] = tested on: HL-60(TB) leukemia
[58] = tested on: SK-MEL-2 melanoma
[59] = tested on: IGROV1 ovarian

CCOC(=O)c1c(N2CCOCC2)[nH]c(=O)c(C(c2ccc(OC)cc2)c2c(O)c(C(=O)OCC)c(N3CCOCC3)[nH]c2=O)c1O
TGI [1]: > 100 µM | TGI [2]: > 100 µM | TGI [3]: > 100 µM | TGI [4]: > 100 µM | TGI [5]: > 100 µM | TGI [6]: > 100 µM | TGI [7]: > 100 µM | TGI [8]: > 100 µM | TGI [9]: > 100 µM | TGI [10]: > 100 µM | TGI [11]: > 100 µM | TGI [12]: > 100 µM | TGI [13]: > 100 µM | TGI [14]: > 100 µM | TGI [15]: > 100 µM | TGI [16]: > 100 µM | TGI [17]: > 100 µM | TGI [18]: > 100 µM | TGI [19]: > 100 µM | TGI [20]: > 100 µM | TGI [21]: > 100 µM | TGI [22]: > 100 µM | TGI [23]: > 100 µM | TGI [24]: > 100 µM | TGI [25]: > 100 µM | TGI [26]: > 100 µM | TGI [27]: > 100 µM | TGI [28]: > 100 µM | TGI [29]: > 100 µM | TGI [30]: > 100 µM | TGI [31]: > 100 µM | TGI [32]: > 100 µM | TGI [33]: > 100 µM | TGI [34]: > 100 µM | TGI [35]: > 100 µM | TGI [36]: > 100 µM | TGI [37]: > 100 µM | TGI [38]: > 100 µM | TGI [39]: > 100 µM | TGI [40]: > 100 µM | TGI [41]: > 100 µM | TGI [42]: > 100 µM | TGI [43]: > 100 µM | TGI [44]: > 100 µM | TGI [45]: > 100 µM | TGI [46]: > 100 µM | TGI [47]: > 100 µM | TGI [48]: > 100 µM | TGI [49]: > 100 µM | TGI [50]: > 100 µM | TGI [51]: > 100 µM | TGI [52]: > 100 µM | TGI [53]: > 100 µM | TGI [54]: > 100 µM | TGI [55]: > 100 µM | TGI [56]: > 100 µM

O=c1oc2ccccc2c(O)c1/C=N\c1nc(-c2ccccc2)cs1
TGI [1]: 7.03 µM | TGI [2]: > 100 µM | TGI [3]: > 100 µM | TGI [4]: 31.1 µM | TGI [5]: > 100 µM | TGI [6]: 20.4 µM | TGI [7]: 47.1 µM | TGI [8]: 22 µM | TGI [9]: 32 µM | TGI [10]: 23.6 µM | TGI [11]: 64.4 µM | TGI [13]: 26.9 µM | TGI [14]: > 100 µM | TGI [15]: 12.2 µM | TGI [16]: 42.6 µM | TGI [17]: 5.71 µM | TGI [18]: 9.74 µM | TGI [19]: 40.2 µM | TGI [57]: 4.01 µM | TGI [20]: 11.5 µM | TGI [21]: 46.9 µM | TGI [22]: > 100 µM | TGI [23]: 20.6 µM | TGI [24]: 23 µM | TGI [58]: 36 µM | TGI [25]: 5.31 µM | TGI [26]: 16 µM | TGI [27]: 23.1 µM | TGI [28]: 23 µM | TGI [29]: 35.1 µM | TGI [30]: 16.2 µM | TGI [31]: 6.39 µM | TGI [32]: 24.9 µM | TGI [33]: 25.2 µM | TGI [34]: 89.7 µM | TGI [35]: 39.1 µM | TGI [36]: 30.8 µM | TGI [37]: 21.6 µM | TGI [38]: 19.3 µM | TGI [39]: 30.8 µM | TGI [40]: 9.65 µM | TGI [41]: 7.58 µM | TGI [42]: 24 µM | TGI [43]: 31.1 µM | TGI [44]: 69.2 µM | TGI [45]: 39.5 µM | TGI [46]: 14.1 µM | TGI [47]: 63.5 µM | TGI [48]: 54.8 µM | TGI [50]: 62.4 µM | TGI [51]: 27.3 µM | TGI [52]: 16.2 µM | TGI [59]: 27.8 µM | TGI [53]: > 100 µM | TGI [54]: > 100 µM | TGI [55]: > 100 µM | TGI [56]: 31.2 µM

CCOC(=O)C(O)(NC(C)=O)C(F)(F)F (stereo not drawn)
TGI [1]: > 100 µM | TGI [2]: > 100 µM | TGI [3]: > 100 µM | TGI [4]: > 100 µM | TGI [6]: > 100 µM | TGI [7]: > 100 µM | TGI [8]: > 100 µM | TGI [9]: > 100 µM | TGI [10]: > 100 µM | TGI [11]: > 100 µM | TGI [12]: > 100 µM | TGI [13]: > 100 µM | TGI [14]: > 100 µM | TGI [15]: > 100 µM | TGI [16]: > 100 µM | TGI [17]: > 100 µM | TGI [18]: > 100 µM | TGI [57]: > 100 µM | TGI [20]: > 100 µM | TGI [21]: > 100 µM | TGI [23]: > 100 µM | TGI [24]: > 100 µM | TGI [58]: > 100 µM | TGI [25]: > 100 µM | TGI [26]: > 100 µM | TGI [27]: > 100 µM | TGI [28]: > 100 µM | TGI [29]: > 100 µM | TGI [30]: > 100 µM | TGI [31]: > 100 µM | TGI [32]: > 100 µM | TGI [33]: > 100 µM | TGI [34]: > 100 µM | TGI [35]: > 100 µM | TGI [36]: > 100 µM | TGI [37]: > 100 µM | TGI [38]: > 100 µM | TGI [39]: > 100 µM | TGI [40]: > 100 µM | TGI [41]: > 100 µM | TGI [42]: > 100 µM | TGI [43]: > 100 µM | TGI [44]: > 100 µM | TGI [45]: > 100 µM | TGI [46]: > 100 µM | TGI [47]: > 100 µM | TGI [49]: > 100 µM | TGI [50]: > 100 µM | TGI [51]: > 100 µM | TGI [52]: > 100 µM | TGI [59]: > 100 µM | TGI [53]: > 100 µM | TGI [54]: > 100 µM | TGI [55]: > 100 µM | TGI [56]: > 100 µM
